In the assay the test system is L1210 leukemia ip in BDF1 mice, survival T/C. The assay can be described thus: NCI In Vivo Anticancer Drug Screen. Data for tumor model L1210 Leukemia (intraperitoneal) in B6D2F1 (BDF1) mice. As to conditions: endpoint: mean survival time, higher = longer survival. The essentials:
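Tumor cells were implanted, animals were treated, and survival was followed. The result divides the treated measurement by the vehicle-control measurement.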

Where [1] appears, read: dose: 100.0 mg/kg/injection, schedule: Q01DX009 (ip), vehicle: Klucel (hydroxypropylcellulose) (HPC).
Where [2] appears, read: dose: 100.0 mg/kg/injection, schedule: Q04DX003 (ip), vehicle: Klucel (hydroxypropylcellulose) (HPC).
Where [3] appears, read: dose: 200.0 mg/kg/injection, schedule: Q01DX009 (ip), vehicle: Klucel (hydroxypropylcellulose) (HPC).
Setting [4] is: dose: 200.0 mg/kg/injection, schedule: Q04DX003 (ip), vehicle: Klucel (hydroxypropylcellulose) (HPC).
The mark [5] stands for this setting: dose: 400.0 mg/kg/injection, schedule: Q01DX009 (ip), vehicle: Klucel (hydroxypropylcellulose) (HPC).
The mark [6] stands for this setting: dose: 400.0 mg/kg/injection, schedule: Q04DX003 (ip), vehicle: Klucel (hydroxypropylcellulose) (HPC).
Where [7] appears, read: dose: 100.0 mg/kg/injection, schedule: Q04DX002 (ip), vehicle: saline with Tween-80.
Where [8] appears, read: dose: 200.0 mg/kg/injection, schedule: Q04DX002 (ip), vehicle: saline with Tween-80.
Where [9] appears, read: dose: 400.0 mg/kg/injection, schedule: Q04DX002 (ip), vehicle: saline with Tween-80.
Setting [10] is: dose: 50.0 mg/kg/injection, schedule: Q01DX009 (ip), vehicle: saline with Tween-80.
Where [11] appears, read: dose: 100.0 mg/kg/injection, schedule: Q04DX003 (ip), vehicle: saline with Tween-80.
[12] abbreviates: dose: 100.0 mg/kg/injection, schedule: Q04DX002 (ip), vehicle: Klucel (hydroxypropylcellulose) (HPC).
Where [13] appears, read: dose: 200.0 mg/kg/injection, schedule: Q04DX002 (ip), vehicle: Klucel (hydroxypropylcellulose) (HPC).
[14] abbreviates: dose: 400.0 mg/kg/injection, schedule: Q04DX002 (ip), vehicle: Klucel (hydroxypropylcellulose) (HPC).
Where [15] appears, read: dose: 100.0 mg/kg/injection, schedule: Q04DX003 (ip), vehicle: saline.
Where [16] appears, read: dose: 200.0 mg/kg/injection, schedule: Q04DX003 (ip), vehicle: saline.

Several values for one entry are separate records, joined by “and”; a condition that tells them apart may be missing. Identical values can stand only once. Toxic doses and inconclusive results are not listed.

Consider `Nc1ccc(NC(=S)Nc2ccccc2)cc1`, for which the T/C is, setting by setting: under setting [1], 104 % of control; under setting [2], 93 % of control; under setting [3], 101 % of control; under setting [4], 95 % of control; under setting [5], 97 % of control; under setting [6], 92 % of control.

In the case of `COc1cccc(C2NC(=O)CCC2[N+](=O)[O-])c1OC` (configuration not stated), the T/C under setting [7] was 105 % of control, the T/C under setting [8] is 102 % of control and the T/C under setting [9] was 94 % of control.

For `C=CCOC(=O)CCOCC`, the T/C reads like this: (dose: 55.0 mg/kg/injection, schedule: Q01DX Z (ip), vehicle: methylcellulose (MC)) 90 % of control; (dose: 83.0 mg/kg/injection, schedule: Q01DX Z (ip), vehicle: methylcellulose (MC)) 94 % of control; (dose: 125.0 mg/kg/injection, schedule: Q01DX Z (ip), vehicle: methylcellulose (MC)) 90 % of control.

Turning to `O=C[N]([Hg][Cl])c1ccccc1`, the T/C (dose: 0.39 mg/kg/injection, schedule: Q01DX009 (ip), vehicle: saline with Tween-80) is 102 % of control; the T/C (dose: 0.78 mg/kg/injection, schedule: Q01DX009 (ip), vehicle: saline with Tween-80) is 102 % of control; the T/C (dose: 1.56 mg/kg/injection, schedule: Q01DX009 (ip), vehicle: saline with Tween-80) is 87 % of control; the T/C (dose: 1.56 mg/kg/injection, schedule: Q01DX009 (ip), vehicle: saline) was 94 % of control.

Take `COc1cc(OC)c(NC(=O)Nc2cccc(Cl)c2C)cc1Cl`: the T/C (dose: 12.5 mg/kg/injection, schedule: Q01DX009 (ip), vehicle: saline with Tween-80) was 97 % of control and 92 % of control; the T/C (dose: 25.0 mg/kg/injection, schedule: Q01DX009 (ip), vehicle: saline with Tween-80) was 94 % of control and 95 % of control; the T/C (dose: 25.0 mg/kg/injection, schedule: Q04DX003 (ip), vehicle: saline with Tween-80) is 89 % of control; the T/C under setting [10] is 95 % of control and 87 % of control; the T/C (dose: 50.0 mg/kg/injection, schedule: Q04DX003 (ip), vehicle: saline with Tween-80) was 97 % of control; the T/C under setting [7] is 86 % of control and 91 % of control. Further, the T/C is, setting by setting: under setting [11], 92 % of control; (dose: 200.0 mg/kg/injection, schedule: Q01DX009 (ip), vehicle: saline with Tween-80) 89 % of control and 91 % of control; under setting [8], 87 % of control and 90 % of control; (dose: 400.0 mg/kg/injection, schedule: Q01DX009 (ip), vehicle: saline with Tween-80) 96 % of control and 91 % of control; under setting [9], 104 % of control and 91 % of control.

Consider `CCOC(=O)NC(C)(C)CC(C)(C)C`, for which the T/C reads like this: under setting [1], 101 % of control; under setting [2], 108 % of control; under setting [3], 98 % of control; under setting [4], 94 % of control; under setting [5], 103 % of control; under setting [6], 97 % of control.

As for `CCOc1cccc2c(=O)c(C(=O)O)cn(CC)c12`, the T/C was 93 % of control under setting [12], 107 % of control under setting [13] and 104 % of control under setting [14].

Regarding `CCCNC(=O)Nc1ccc(OCC)cc1`, the T/C under setting [12] was 105 % of control, the T/C under setting [13] was 115 % of control and the T/C under setting [14] is 105 % of control.

Regarding `CCCCNCCN(CC)CC`, the T/C under setting [11] is 98 % of control.

As to `CCCCNC(C)(C)C(SSSC(c1ccco1)C(C)(C)NCCCC)c1ccco1` (configuration not stated), the T/C is, setting by setting: under setting [10], 91 % of control; (dose: 100.0 mg/kg/injection, schedule: Q01DX009 (ip), vehicle: saline with Tween-80) 96 % of control; under setting [15], 98 % of control; under setting [16], 100 % of control.

As to `O=S(=O)(Cc1cccc(Cl)c1)c1ccccc1`, the T/C under setting [12] was 96 % of control, the T/C under setting [13] is 107 % of control and the T/C under setting [14] is 104 % of control.

With `O=C(CCC(=O)c1ccccc1)OCc1ccccc1`, the T/C is 96 % of control under setting [12] and 86 % of control under setting [13].

For the molecule `CN(N=O)C(=O)NCCc1ccc(OC(=O)N(C)N=O)cc1`, the T/C was 98 % of control (dose: 0.78 mg/kg/injection, schedule: Q01DX Z (ip), vehicle: carboxymethylcellulose (CMC)); 110 % of control (dose: 1.56 mg/kg/injection, schedule: Q01DX Z (ip), vehicle: carboxymethylcellulose (CMC)); 95 % of control (dose: 3.12 mg/kg/injection, schedule: Q01DX Z (ip), vehicle: carboxymethylcellulose (CMC)); 113 % of control (dose: 6.25 mg/kg/injection, schedule: Q01DX Z (ip), vehicle: carboxymethylcellulose (CMC)); 118 % of control (dose: 12.5 mg/kg/injection, schedule: Q01DX Z (ip), vehicle: carboxymethylcellulose (CMC)); 124 % of control (dose: 25.0 mg/kg/injection, schedule: Q01DX Z (ip), vehicle: carboxymethylcellulose (CMC)). Moreover, the T/C (dose: 50.0 mg/kg/injection, schedule: Q01DX Z (ip), vehicle: carboxymethylcellulose (CMC)) was 91 % of control.

In the case of `CC(C)NNC(=O)c1ccccc1N`, the T/C was 103 % of control (dose: 25.0 mg/kg/injection, schedule: Q01DX009 (ip), vehicle: Klucel (hydroxypropylcellulose) (HPC)); 96 % of control (dose: 25.0 mg/kg/injection, schedule: Q04DX003 (ip), vehicle: Klucel (hydroxypropylcellulose) (HPC)); 98 % of control (dose: 50.0 mg/kg/injection, schedule: Q01DX009 (ip), vehicle: Klucel (hydroxypropylcellulose) (HPC)); 89 % of control (dose: 50.0 mg/kg/injection, schedule: Q04DX003 (ip), vehicle: Klucel (hydroxypropylcellulose) (HPC)); 93 % of control under setting [1]; 91 % of control under setting [2]. In addition, the T/C was 92 % of control under setting [3], 100 % of control under setting [4] and 94 % of control under setting [6].

As to `O=C(Nc1ccc(NC(=O)c2ccc(C3=NCCCN3)cc2)cc1)Nc1ccc(C2=NCCCN2)cc1`, the T/C runs as follows: (dose: 0.62 mg/kg/injection, schedule: Q01DX Z (ip), vehicle: carboxymethylcellulose (CMC)) 103 % of control; (dose: 1.25 mg/kg/injection, schedule: Q01DX Z (ip), vehicle: carboxymethylcellulose (CMC)) 110 % of control; (dose: 2.5 mg/kg/injection, schedule: Q01DX Z (ip), vehicle: carboxymethylcellulose (CMC)) 105 % of control; (dose: 5.0 mg/kg/injection, schedule: Q01DX Z (ip), vehicle: carboxymethylcellulose (CMC)) 174 % of control; (dose: 6.0 mg/kg/injection, schedule: Q01DX Z (ip), vehicle: carboxymethylcellulose (CMC)) 153 % of control; (dose: 8.0 mg/kg/injection, schedule: Q01DX Z (ip), vehicle: carboxymethylcellulose (CMC)) 185 % of control. For the same molecule, the T/C is 113 % of control (dose: 21.0 mg/kg/injection, schedule: Q01DX Z (ip), vehicle: carboxymethylcellulose (CMC)); 91 % of control (dose: 62.0 mg/kg/injection, schedule: Q01DX Z (oral), vehicle: carboxymethylcellulose (CMC)); 102 % of control (dose: 125.0 mg/kg/injection, schedule: Q01DX Z (oral), vehicle: carboxymethylcellulose (CMC)); 98 % of control (dose: 250.0 mg/kg/injection, schedule: Q01DX Z (oral), vehicle: carboxymethylcellulose (CMC)); 100 % of control (dose: 500.0 mg/kg/injection, schedule: Q01DX Z (oral), vehicle: carboxymethylcellulose (CMC)).

For `NNC(=O)CCCCC(=O)NN`, the T/C runs as follows: under setting [15], 100 % of control; under setting [16], 97 % of control; (dose: 400.0 mg/kg/injection, schedule: Q04DX003 (ip), vehicle: saline) 100 % of control.

Turning to `c1ccc(C(c2ccccc2)c2ccc3ccccc3n2)cc1`, the T/C (dose: 100.0 mg/kg/injection, schedule: Q04DX003 (ip), vehicle: acetone) was 90 % of control; the T/C (dose: 200.0 mg/kg/injection, schedule: Q04DX003 (ip), vehicle: acetone) was 99 % of control; the T/C (dose: 400.0 mg/kg/injection, schedule: Q04DX003 (ip), vehicle: acetone) was 94 % of control.

These data come from PubChem BioAssay AID248 (DTP/NCI, 2004).
